Measured values as given in paper PMC11990103, “Anticancer Activity and Safety Profile of Novel 1-(4-Fluorophenoxyacetyl)-4-substituted Thio/Semicarbazide Derivatives” (Molecules, 2025).

Experiments:
zebrafish embryos = system: zebrafish embryos; set-up: method as in PMID 36436567; settings: cited from earlier work
[1] = system: MCF-7 breast cancer cell line; assay: MTT cytotoxicity assay; type: cell-based, human; settings: 48 h treatment
Description: (§1) These cancer cell lines comprised prostate cancer (PC-3, DU-145, LNCaP), melanoma (SK-MEL28, A375, G-361), breast cancer (MCF-7, MDA-MB-231), and lung cancer (NCI-H1563). The MTT assay was carried out across a wide range of concentrations for 48 h.
(§2) The research was conducted on one primary cell line: BJ (fibroblast) and four types of cancerous ones: three prostate cancer cell lines (PC-3, DU-145, LNCaP); 3 Melanoma cell lines (MEL-28, A375, G-361); 2 breast cancer cell lines (MCF-7, MDA-MB-23) and one lung cancer cell line (NCI-H1563). All cell lines were obtained from the American Type Culture Collection (ATCC, Manassas, VA, USA) and were grown in media (Corning, New York, NY, USA) according to ATCC guidelines. The culture media was enriched with 10% heat-inactivated fetal bovine serum (Life Technologies, Carlsbad, CA, USA) and antibiotics: penicillin (100 units) and streptomycin (100 μg/mL) from Sigma-Aldrich (St. Louis, MO, USA). The cells were incubated at 37 °C with 5% CO2 in air.
(§3) The cytotoxic analysis of thiosemicarbazides (TSC) (AB1–AB6) and semicarbazides (SC) (AB7–AB12) was conducted in various concentrations. […] The cells were treated with compounds or DMSO as a vehicle in control cultures for 48h. IC50 values were determined using the AAT Bioquest IC50 calculator (AAT Bioquest, Inc., Pleasanton, CA, USA, Quest Graph™ EC50 Calculator. https://www.aatbio.com/tools/ec50-calculator) (accessed on 7 October 2024).
(§4) The cytotoxic activity of the thiosemicarbazides and semicarbazides was measured using the MTT colorimetric assay (MTT Cell Proliferation Assay Kit—Invitrogen, Waltham, MA, USA). The cells were seeded in the 96-well plates at a density of 1.5 × 10^5 cells/mL. After reaching 70–80% of confluence, the tested compounds in a wide range of concentrations were added. Plates were incubated for 48 h at 37 °C in 5% CO2 air. Then, […] tetrazolium salt (3-(4,5-dimethylthiazol-2-yl)-2,5-diphenyltetrazolium bromide)—MTT reagent (0.5 mg/mL) dissolved in PBS was added to each well for 4 h. The MTT solution was then removed from above the water-insoluble purple formazan crystals, which were then dissolved in DMSO (dimethyl sulfoxide, […]; POCH, Gliwice, Poland). The absorbance value of obtained solutions was measured using a PowerWave ™ microplate spectrophotometer (Bio-Tek Instruments, Winooski, VT, USA) at a wavelength of 570 nm. Each cytotoxicity assay was repeated three times in triplicates.

[2] = system: DU-145 prostate cancer cell line; assay: MTT cytotoxicity assay; type: cell-based, human; settings: 48 h treatment
Description: as §1, §2, §3, §4

[3] = system: MDA-MB-231 breast cancer cell line; assay: MTT cytotoxicity assay; type: cell-based, human; settings: 48 h treatment
Description: as §1, §2, §3, §4

[4] = system: NCI-H1563 lung cancer cell line; assay: MTT cytotoxicity assay; type: cell-based, human; settings: 48 h treatment
Description: as §1, §2, §3, §4

[5] = system: PC-3 prostate cancer cell line; assay: MTT cytotoxicity assay; type: cell-based, human; settings: 48 h treatment
Description: as §1, §2, §3, §4

[6] = system: SK-MEL28 melanoma cell line; assay: MTT cytotoxicity assay; type: cell-based, human; settings: 48 h treatment
Description: as §1, §2, §3, §4

[7] = system: LNCaP prostate cancer cell line; assay: MTT cytotoxicity assay; type: cell-based, human; settings: MTT, 48 h treatment
Description: as §1, §2, §3, §4

G-361 melanoma cell line = assay: MTT cytotoxicity assay; type: cell-based, human; settings: MTT, 48 h treatment
Description: as §1, §2, §3, §4

A375 melanoma cell line = assay: MTT cytotoxicity assay; type: cell-based, human; settings: 48 h treatment
Description: as §1, §2, §3, §4

[8] = system: tested cancer cell lines (PC-3, DU-145, LNCaP, SK-MEL28, A375, G-361, MCF-7, MDA-MB-231, NCI-H1563); assay: MTT cytotoxicity assay, panel of nine cancer cell lines as a whole; type: cell-based, human
Description: as §1
The research was conducted on one primary cell line: BJ (fibroblast) and four types of cancerous ones: three prostate cancer cell lines (PC-3, DU-145, LNCaP); 3 Melanoma cell lines (MEL-28, A375, G-361); 2 breast cancer cell lines (MCF-7, MDA-MB-23) and one lung cancer cell line (NCI-H1563). […]
The cytotoxic analysis of thiosemicarbazides (TSC) (AB1–AB6) and semicarbazides (SC) (AB7–AB12) was conducted in various concentrations. […] IC50 values were determined using the AAT Bioquest IC50 calculator (AAT Bioquest, Inc., Pleasanton, CA, USA, Quest Graph™ EC50 Calculator. https://www.aatbio.com/tools/ec50-calculator) (accessed on 7 October 2024).
The cytotoxic activity of the thiosemicarbazides and semicarbazides was measured using the MTT colorimetric assay (MTT Cell Proliferation Assay Kit—Invitrogen, Waltham, MA, USA). […] The absorbance value of obtained solutions was measured using a PowerWave ™ microplate spectrophotometer (Bio-Tek Instruments, Winooski, VT, USA) at a wavelength of 570 nm. […]

BJ fibroblasts = assay: MTT cytotoxicity assay, normal cells; type: cell-based, human; settings: 48 h treatment, read-out: IC50 BJ (fibroblast)
Description: as §1, §2, §3, §4

G-361 melanoma cells = system: G-361 melanoma cells; set-up: method as in PMID 35204651; settings: cited from earlier work
[9] = set-up: method as in PMID 14912098; settings: as toxic as thiosemicarbazide; cited from earlier work

| SMILES | morphological abnormalities, including cardiotoxicity (zebrafish embryos) | IC50 [1] [µM] | IC50 [2] [µM] | IC50 [3] [µM] | IC50 [4] [µM] | IC50 [5] [µM] | IC50 [6] [µM] | IC50 [7] [µM] | IC50 (G-361 melanoma cell line) [µM] | IC50 (A375 melanoma cell line) [µM] | IC50 ([8]; MTT, 48 h, thiosemicarbazides tested 500 to 100 μM, semicarbazides 100 μM to 1 μM, read-out: IC50 in the tested cancer cell lines (stated for the panel)) [µM] | IC50 (BJ fibroblasts) [µM] | selectivity index (SI) ([8]; IC50 normal cells (BJ) divided by IC50 cancer cells, cell line not specified) | population of cells in the sub-G1 phase (G-361 melanoma cells) | toxicity relative to thiosemicarbazide [9] |
| --- | --- | --- | --- | --- | --- | --- | --- | --- | --- | --- | --- | --- | --- | --- | --- |
| CCNC(=O)NNC(=O)c1ccc([N+](=O)[O-])cc1 [1-(4-nitrobenzoyl)-4-ethylsemicarbazide] | do not cause morphological abnormalities, including cardiotoxicity |  |  |  |  |  |  |  |  |  |  |  |  |  |  |
| CCCCCCNC(=O)NNC(=O)Cc1ccc([N+](=O)[O-])cc1 [1-[(4-nitrophenyl)acetyl]-4-hexylsemicarbazide] | do not cause morphological abnormalities, including cardiotoxicity |  |  |  |  |  |  |  |  |  |  |  |  |  |  |
| O=C(COc1ccc(F)cc1)NNC(=S)Nc1ccccc1 [AB1] |  | > 500 | > 500 | > 500 | > 500 | > 500 | > 500 | 252 | 369 | > 500 | > 500 | 498 |  |  |  |
| O=C(COc1ccc(F)cc1)NNC(=S)Nc1cccc(Cl)c1 [AB3] |  | 456 | 268 | 495 | 437 | 467 | 302 | 175 | 248 | 400 |  | 422 |  |  |  |
| O=C(COc1ccc(F)cc1)NNC(=S)Nc1ccc(Cl)cc1 [AB4] |  | 343 | 297 | 421 | 293 | 355 | 322 | 257 | 265 | 399 |  | 313 |  |  |  |
| O=C(COc1ccc(F)cc1)NNC(=S)Nc1ccc(Cl)cc1Cl [AB5] |  | 421 | 401 | 445 | 372 | 395 | 297 | 154 | 276 | 384 |  | 303 |  |  |  |
| O=C(COc1ccc(F)cc1)NNC(=S)Nc1ccc(Cl)c(Cl)c1 [AB6] |  | 240 | 343 | 334 | 242 | 388 | 195 | 121 | 210 | 257 |  | < 100 | < 1 |  |  |
| N.N.[Cl][Pt][Cl] [Cisplatin, reference compound] |  | 22.6 | 64.1 | 38.7 | 2.78 | 52.2 | 25.8 | 31.5 | 12.5 | 18.2 |  |  |  |  |  |
| CSc1ccc(NC(=S)NNC(=O)COc2ccc(Cl)cc2Cl)cc1 [PK2] |  |  |  |  |  |  |  |  |  |  |  |  |  | increase |  |
| NNC(N)=O [semicarbazide] |  |  |  |  |  |  |  |  |  |  |  |  |  |  | about 1/20 |
